Here are results for two compounds from patent US20090130188A9, “Acrylic pressure sensitive adhesives” (National Starch and Chemical Investment Holding Company, priority 2005, published 2009).

Read-outs that look alike come from different tables or passages of the source.

Data set [1] is described as follows: Ketoprofen added to adhesive solutions, mixed overnight, dissolved vs dispersed. Format: physicochemical. The following applies: 15% on a solids basis.
For data set [2] the following is noted: for state of ketoprofen in dried adhesive film: dried 30 minutes at 60° C.
Data set [3] can be described thus: Cholesteryl dodecanoate added to adhesive solutions, mixed overnight at room temperature. Conditions: 1% on a solids basis. Format: physicochemical. On the procedure:
Cholesteryl dodecanoate, a model for a highly lipophilic drug, was added at 1% on a solids basis to the solutions of Example 7 and 8. These were then mixed overnight at room temperature.

Where [4] appears, read: film from conventional adhesive solution (Comparative Example 2).

As to `CC(C(=O)O)c1cccc(C(=O)c2ccccc2)c1` (stereo not shown) [ketoprofen], the “dissolution of ketoprofen in adhesive solution” value in data set [1] (adhesive solution of Example 1 (cyclohexane, δ 16.8), tube B) is “most of the ketoprofen remained as a dispersed solid”; in data set [1] (adhesive solution of Example 2 (δ 19.0), tube A) it was “completely dissolved”. Also, the “enthalpy of fusion by DSC” value in data set [2] (setting [4]) is on record as “zero”. Further, the “state of ketoprofen in dried adhesive film” value in data set [2] (setting [4]) is “no visible crystals”; in data set [2] (film from cyclohexane adhesive solution (Example 1)) it was “undissolved crystals”.

On to `CCCCCCCCCCCC(=O)O[C@H]1CC[C@@]2(C)C(=CC[C@H]3[C@@H]4CC[C@H]([C@H](C)CCCC(C)C)[C@@]4(C)CC[C@@H]32)C1` [Cholesteryl dodecanoate], for which the “dissolution of model active in adhesive solution” value in data set [3] (solution of Example 7 (ethanol)) is given as “large quantity of undissolved model active”; in data set [3] (solution of Example 8 (δ 19.4)), “completely soluble”.
